Measurements: US10111822B2, “External dermal composition for anti-ageing and method for producing the same” (Hayashibara Co., Ltd., priority 2012, dated 2018)

How the values were obtained:
[1] = test system: Microphthalmia-associated transcription factor (MITF); assay: MITF and phosphorylated MITF in B16 cells (Western); assay type: cell-based, mouse; details: 2 h; for (Phosphorylated MITF)/(MITF): control 0.90; for Phosphorylated MITF / MITF: β-actin regarded as 100%; for Phosphorylated MITF: control 73; for MITF: control 81
Experimental: Test solutions were prepared by dissolving ascorbic acid 2-glucoside (a reagent grade specimen commercialized by Hayashibara Co., Ltd., Okayama, Japan) or L-ascorbic acid (a special reagent grade specimen commercialized by Wako Pure Chemical Industries, Ltd., Tokyo, Japan) in Dulbecco's MEM medium supplemented with 10% v/v fetal calf serum and an antibiotic (abbreviated as “D-MEM medium”, hereinafter) to give a final concentration of 2.0 or 8.0 mM.
Continuously-cultivated B16 cells in D-MEM medium were collected, resuspended in D-MEM medium, inoculated to 6-well plates in an amount of 1×10^5 cells/2 mL/well, and cultured for 24 hours. Thereafter, the culture supernatants were removed by sucking, and any of the test solutions was added to each plate in a volume of 2 mL/well, followed by culturing the cells for two hours. As a control, cells in other plates were added with only D-MEM medium in a volume of 2 mL/plate and cultured for two hours. To each plate, which had been removed its culture supernatant, an ice-chilled Dulbecco's PBS (−), commercialized by Nissui Pharmaceutical Co., Ltd., Tokyo, Japan, was added to wash cells, and the resulting cells were added with a SDS-sample buffer containing 62.5 mM Tris-HCl (pH 6.8), 2% w/v SDS, 10% w/v glycerol, 50 mM dithiothreitol (DTT), and 0.01% w/v bromophenol blue in a volume of 0.1 mL/well, and collected with a scraper. The resulting cell suspension was treated with an ultrasonicator, commercialized by Osminics Inc., Minnesota, USA, and subjected to SDS-polyacrylamide gel electrophoresis. The proteins in the gel were electrically transferred to a nitrocellulose membrane and allowed to sequentially react with a first antibody (Anti-phospho-MITF […] or Anti MITF), a secondary antibody, and LumiGLO™ in this order, followed by allowing to expose an X-ray film for detecting MITF positive bands. The bands thus detected were subjected to band strength analysis using Scion Image to determine the quantity of MITF and phosphorylated MITF. For every B16 cell culture, a 5% v/v CO2 incubator was used. Relative amounts of MITF and phosphorylated MITF and the ratio of phosphorylated MITF against MITF were determined when the level of β-actin in B16 cells upon culturing with each of the test solutions was regarded as 100%.

[2] = test system: glutathione; assay: Production level of glutathione in A431 cells; assay type: cell-based, human; details: 1 mM, 24 h, control = 100%
Experimental: To Dulbecco's MEM medium, containing 10% v/v calf fetal serum and an antibiotic (abbreviated as “D-MEM”, hereinafter), were added ascorbic acid 2-glucoside, a reagent grade specimen commercialized by Hayashibara Co., Ltd., Okayama, Japan, or L-ascorbic acid, a special reagent grade specimen commercialized by Wako Pure Chemical Industries, Ltd., Tokyo, Japan, […]
Continuously-cultivated A431 cells in D-MEM medium were collected, resuspended in D-MEM medium, inoculated to culture plates with 10 cm in diameter (φ) in an amount of 1×10^6 cells/10 mL/plate, and cultured for 24 hours. Thereafter, the culture supernatants were removed by sucking, and the remaining cells were added with any of the test solutions in an amount of 10 mL/plate and cultured for another 24 hours. As a control, cells were added with only D-MEM medium in an amount of 10 mL/plate and cultured for 24 hours. To each plate, which had been removed its culture supernatant, was added ice-chilled Dulbecco's PBS (−) commercialized by Nissui Pharmaceutical Co., Ltd., Tokyo, Japan, to wash cells, which were then collected with a scraper. Glutathione was quantified with “Glutathione Assay Kit”, a commercially available glutathione assay kit commercialized by BioVision, Inc., San Francisco, USA. In this experiment, the control and test solutions were respectively assayed by using three plates respectively, and the data were averaged for obtaining a glutathione production level for each plate. A5% v/v CO2 incubator was used for culturing A431 cells in any case. Relative values of test samples were determined with the proviso that the production levels of reduced glutathione and total glutathione levels in A431 cells that had been cultured with only D-MEM medium were respectively regarded as 100%, and the results are in Table 4.

[3] = test system: NHEK cells; assay: Proliferation of NHEK cells (methylene blue staining); assay type: cell-based, human; details: 4 days
Source text: Normal human epidermal keratinocytes from neonatal foreskin (commercialized by Kurabo Industries Ltd., Osaka, Japan, and abbreviated as “NHEK cells”, hereinafter) were suspended in EpiLife medium (commercialized by Invitrogen Corporation, Calif., USA) supplemented with a cell-growth supplement (EDGS: EpiLife Defined Growth Supplement) (EpiLife medium supplemented with EDGS is abbreviated as “EpiLife medium”, hereinafter), and subjected to passage cultures at a confluent density of 60 to 80% under a 5% v/v CO2 condition and at 37° C. The proliferated cells were detached from culture vessels, suspended in HuMedia-KB2 medium (commercialized by Kurabo Industries Ltd., Osaka, Japan) to give a cell density of 7.5×10^3 cells/mL, inoculated to 24-well plates coated with collagen (“Cell matrix Type IV”, a product name of Nitta Gelatin Inc., Osaka, Japan) in a volume of 0.4 mL/well, and cultured for one day under a 5% v/v CO2 condition and at 37° C. […] Then, the resulting cells were washed with distilled water and admixed with 0.33 N hydrochloric acid in a volume of 0.5 mL/well to extract the dye (methylene blue), followed by transferring the resulting extract to 96-well plates in a volume of 0.1 mL/well for measuring the absorbance at wavelengths of 595 nm and 650 nm. The values, obtained by subtracting the absorbance at a wavelength of 650 nm from that of 595 nm, were regarded as indexes of cell growth rates, which were relatively evaluated by regarding the value, as a control, obtained with KB2-HI medium free of ascorbic acid 2-glucoside as 100%.

O=C1O[C@H]([C@@H](O)CO)C(O)=C1O[C@H]1O[C@H](CO)[C@@H](O)[C@H](O)[C@H]1O [ascorbic acid 2-glucoside, 2-O-α-D-glucosyl-L-ascorbic acid]
(Phosphorylated MITF)/(MITF) ([1]; 2.0 mM): 0.60
Phosphorylated MITF ([1]; 2.0 mM): 59%
MITF ([1]; 2.0 mM): 99%
(Phosphorylated MITF)/(MITF) ([1]; 8.0 mM): 0.36
Phosphorylated MITF ([1]; 8.0 mM): 36%
MITF ([1]; 8.0 mM): 101%
Total glutathione [2]: 106%
Cell growth rate ([3]; 100 μM, control without ascorbic acid 2-glucoside = 100%): 148%
Cell growth rate ([3]; 300 μM, control = 100%): 157%
Cell growth rate ([3]; 900 μM, control = 100%): 169%
